Measured values taken from patent US12570657B2, “Mesylate salts of heterocyclic cytokinins, compositions containing these derivatives and use thereof” (UNIVERZITA PALACKEHO V OLOMOUCI, priority 2020, dated 2026).
Where two headings read alike, the source gives them in different places.

Tests used:
[1] = system: CEM (T-lymphoblastic leukemia); assay: In vitro cytotoxicity, Calcein AM assay, CEM; assay type: cell-based; conditions: 3-day Calcein-AM assay
How it was run: (§1)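 Metabolic viability assay, 72 h compound exposure of cells pre-incubated 12 h after seeding (~10,000 cells/well, 10% FBS, 2 mM L-glutamine); 1 h Calcein AM at 1 μg/ml final, green fluorescence measured against DMSO-treated controls.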

[2] = system: K562 (chronic myeloid leukemia); assay: In vitro cytotoxicity, Calcein AM assay, K-562; assay type: cell-based; conditions: 3-day Calcein-AM assay
How it was run: as §1

keratinocytes HaCaT = assay: Cytotoxicity for non-cancer cells, resazurine reduction assay, HaCaT
Procedure: (§2) It is used for viability testing of both bacterial and eukaryotic cells. […] Cultivation medium was DMEM with 10% FBS. Before the experiment, the cells were subcultured for 2 weeks. For the cytotoxicity evaluation, the cells were trypsinized and pipetted into 96 well plates (5000 cells per well in 80 microliters). After 24 hours, 5× concentrated solutions of the tested compounds in the medium were added. […] IC50 values were calculated from dose response curves using drc library for R programming environment.

[3] = Aqueous solubility: concentration of saturated solution by HPLC; assay type: physicochemical; conditions: for solubility thermodynamic: thermodynamic from solid
Procedure: Aqueous solubility was measured using the following protocol. Supersaturated solution of meta-topolin mesylate salt was prepared. The solutions were filtered off from visible undissolved particles of the salt to obtain homogenic saturated solution. Saturated solution was diluted 1:10 000 and measured using HPLC Alliance Waters 2690 with C18 Symmetry column with the diameter 2.1 mm and 150 mm length with a porosity of 5 μm. The sample was dissolved in the mobile phase (MeOH: HCOONH4-1:9). The sample was washed with a methanol gradient (10-90%, 35 min) at pH 4 and a flow rate of 0.3 ml/min. The absorbances of the components were detected in the UV region at 210-400 nm. The peak area of meta-topolin mesylate salt was 595 027. The standard was measured as shown in the Table 9 below, Obtained peak area was compared to area peaks measured at certain concentration and the final concentration of saturated solution was determined
Solubility of other cytokinin (CK) mesylates was also determined by this method and the concentrations of saturated solutions are given below in Table 10: […]

[4] = system: winter wheat leaf segments; assay: Senescence bioassay: retention of chlorophyll in excised winter wheat leaf tips; assay type: in vivo, Triticum aestivum cv. Hereward; conditions: chlorophyll retention at concentration with highest activity; 10^−4 M BAP = 100%
Procedure: Seeds of winter wheat, Triticum aestivum cv. Hereward, were washed under running water for 24 hours and then sown on vermiculite soaked with Knop's solution. They were placed in a growth chamber at 25° C. with a 16/8 h light/dark period at 50 μmol·m^−2·s^−1. After 7 days, the first leaf was fully developed and the second leaf had started to grow. A tip section of the first leaf, approximately 35 mm long, was removed from 5 seedlings and trimmed slightly to a combined weight of 100 mg. The basal ends of the five leaf tips were placed in the wells of a microtiter polystyrene plate containing 150 μl of each tested compound solution. The entire plate was inserted into a plastic box lined with paper tissues soaked in distilled water to prevent leaf sections from drying out. After 96 h incubation in the dark at 25° C., the leaves were removed and chlorophyll extracted by heating at 80° C. for 10 min in 5 ml of 80% ethanol (v/v). The sample volume was then restored to 5 ml by the addition of 80% ethanol (v/v). The absorbance of the extract was recorded at 665 nm. In addition, chlorophyll extracts from fresh leaves and leaf tips incubated in deionised water were measured. […] Relative activity of the compound at this concentration was calculated (Tab. 3). The activity obtained for 10^−4 M 6-benzylaminopurine (BAP) was postulated as 100%. The values shown are means of five replicates and the whole experiment was repeated twice. The tested cytokinin bases were dissolved in dimethylsulfoxide (DMSO) and the solution brought up to 10^−3 M with distilled water. Cytokinin mesylate salts which are more water-soluble (BAP mesylate, meta-topolin mesylate and kinetin mesylate) could be directly dissolved to form a 10^−3 M solution in distilled water.

skin fibroblasts BJ = assay: Cytotoxicity for non-cancer cells, resazurine reduction assay, BJ; conditions: human, 72 h
Procedure: as §2

[5] = system: cytokinin-dependent tobacco callus; assay: Tobacco callus biotest (stimulation of plant cell division); assay type: cell-based, Nicotiana tabacum L. cv. Wisconsin 38; conditions: callus growth at concentration with highest activity; 10^−5 M BAP = 100%
[6] = resazurin, 72 hour treatment, HaCaT
[7] = saturated solution in water, free cytokinin base, read-out: c of free CK base
[8] = saturated solution in water, cytokinin mesylate, read-out: c of CK mesylate

SMILES	solubility thermodynamic [3, 7] [µM]	IC50 ([1]; 72 h) [µM]	IC50 ([2]; Homo sapiens, K562, 72 h) [µM]	Cytotoxicity for Fibroblasts (GI20) HaCaT (keratinocytes HaCaT; human, 72 h) [µM]	solubility thermodynamic ([3]; water) [µM]	activity (%) [10^−4 mol · l^−1 BAP = 100%] [4] [%]	Cytotoxicity for Fibroblasts (GI20) BJ (skin fibroblasts BJ) [µM]	activity (%) [10^−5 mol · l^−1 BAP = 100%] [5] [%]	Cytotoxicity for Fibroblasts (GI20) HaCaT (keratinocytes HaCaT; [6]) [µM]	concentration of saturated solution ([3]; water)	IC50 ([2]; mesylate) [µM]	solubility thermodynamic [3, 8] [µM]	IC50 ([1]; mesylate) [µM]	c of CK mesylate ([3]; saturated solution in water, cytokinin mesylate)	solubility thermodynamic ([3]; water, read-out: concentration of saturated solution) [µg/mL]
c1ccc(CNc2ncnc3nc[nH]c23)cc1 [BAP, 6-benzylaminopurine]		> 167	139	>100	370	100	137.5	100							
CS(=O)(=O)O.c1ccc(CNc2ncnc3nc[nH]c23)cc1 [BAP mesylate, 6-benzylaminopurine mesylate]						108	>100	104	>100		> 167	354000			
CS(=O)(=O)O.Oc1cccc(CNc2ncnc3nc[nH]c23)c1 [mT mesylate, 6-(3-hydroxybenzylamino)purine mesylate]						109	>100	111	>100	approximately 24010,81 μM	142	24000	> 167	24,011 mM	8000

Now from value to compound, other results behind:

solubility thermodynamic [3, 7] [µM]	SMILES	IC50 ([1]; 72 h) [µM]	IC50 ([2]; Homo sapiens, K562, 72 h) [µM]	Cytotoxicity for Fibroblasts (GI20) HaCaT (keratinocytes HaCaT; human, 72 h) [µM]	solubility thermodynamic ([3]; water) [µM]	activity (%) [10^−4 mol · l^−1 BAP = 100%] [4] [%]	Cytotoxicity for Fibroblasts (GI20) BJ (skin fibroblasts BJ) [µM]	activity (%) [10^−5 mol · l^−1 BAP = 100%] [5] [%]	Cytotoxicity for Fibroblasts (GI20) HaCaT (keratinocytes HaCaT; [6]) [µM]	concentration of saturated solution ([3]; water)	IC50 ([2]; mesylate) [µM]	solubility thermodynamic [3, 8] [µM]	IC50 ([1]; mesylate) [µM]	c of CK mesylate ([3]; saturated solution in water, cytokinin mesylate)	solubility thermodynamic ([3]; water, read-out: concentration of saturated solution) [µg/mL]
60	Oc1cccc(CNc2ncnc3nc[nH]c23)c1 [meta-topolin (mT), 6-(3-hydroxybenzylamino)purine]	90.1	128			117	>100	105	>100	60 µg/mL					
30	Oc1ccccc1CNc1ncnc2nc[nH]c12 [ortho-topolin (oT), 6-(2-hydroxybenzylamino)purine]	69.2	> 167			67	98.7	86	>100						
210	COc1cccc(CNc2ncnc3nc[nH]c23)c1 [3MeOBAP, 6-(3-methoxybenzylamino)purine]	> 167	> 167			101		76							
